The text below walks through data of patent US11884647B2, “Compounds and methods for targeting pathogenic blood vessels” (THE REGENTS OF THE UNIVERSITY OF CALIFORNIA, priority 2019, dated 2024).

In this assay the test system is tumor endothelial cells (LL/2 lung cancer tumor). Description: Lung LL2 ex vivo model of tumor angiogenesis. The format is cell-based, mouse. The settings on record: for cytotoxicity at 40 µM / cytotoxicity at 10 µM / cytotoxicity at 20 µM: Mus musculus, Endothelial cell, 48 h, read-out: Cell death; for Cell death: drug treatment two days. How it is done: This example describes a procedure to prepare a primary tumor angiogenesis model for assessing the efficacy of anti-cancer candidate agents.
1. The day before the experiment, spray all necessary tools with 70% ethanol and sterilize them under UV light overnight, including blade, dissecting and micro-dissecting scissors and […]. Place 24-well dishes at 4° C. to pre-chill plates and thaw Matrigel 24 hours before tumor dissection.
2. Spray 70% ethanol on working bench. Prepare two sterile petri dishes with 10 mL sterile PBS. Steps 3 and 4 are for mouse tumor models. For fresh human tumor, directly go to step 5.
3. Euthanize the tumor-bearing mice. Spray 70% ethanol on the mouse and remove the tumor using sterilized dissecting tools (avoid the fur). Rinse the tumor in petri dish with sterile PBS to remove ethanol and fur. Transfer the tumor to a new petri dish with PBS for dissection. Place the dish on ice.
4. Using pre-chilled sterile pipet tips to seed regular Matrigel in 24 well plates on ice. Matrigel (30 μL) is dropped in the middle of each well without touching the edge of the well (avoid introducing bubbles if possible).
5. Cut the tumor in halves using the sterile blade. Identify and isolate healthy tumor tissue that is not necrotic and is within the tumor capsule. Cut the healthy tumor tissue into small pieces. For instance, a suitable size for the tumor tissue is 0.5 mm (H)×0.5 mm (L)×0.3 mm (D) with a total volume of 0.075 mm^3.
6. Gently transfer and embed each tumor piece in the Matrigel drop in the 24-well plate. Place the embedded piece in the bottom and middle of each Matrigel drop. Keep the plate on ice all the time.
7. After seeding the tumor pieces, plates are incubated in a 37° C. cell culture incubator without medium for 10 minutes in order for the Matrigel to solidify.
8. Endothelial Growth Medium (0.5 mL) is added to each well and incubated at 37° C. with 5% CO2. Wait until the new endothelial cells have grown out of the tumor or are larger than 3 mm in diameter until treatment. This usually takes 4 days for the LL2 Lewis lung cancer model and 7 days for the CT26 colon cancer model. For human tumor models, the growth time is typically 2-3 weeks, depending on the tumor type. Media is changed every 4 days during prolonged culture. Typically, when the tumor tissue grows to 2 mm in diameter, it is good for drug testing. A size of about 3 mm in diameter can make visualization easier.
9. When the assay is ready to be analyzed for cell death (e.g., 48 hours after drug addition), prepare the dye mixture by mixing 6 μL of green dye to stain live cells (5 mg/mL Fluorescein diacetate or FDA in DMSO) with 30 μL of red dye (2.5 mg/mL Propidium iodide or PI in PBS) to stain dead cells in an Eppendorf tube. The FDA dye needs to be stored frozen in a −20° C. freezer because it has a labile ester bond.
10. Add 1 μL of the dye mixture to each well of the 24-well dish. It is usually performed one 24-well dish at a time given the amount of time needed to take pictures (the green dye is not as stable in the cells in the long term).
11. Gently rock the dish a few times to mix the dye with the media in the wells and incubate the dish at 37° C. for 10 min (too long incubation can make the green signal too intense).
12. Wash each well with 0.5 mL of sterile PBS and then add 0.5 mL of phenol red free SFM to each well. Alternatively 0.5 mL of regular Endothelial Cell Growth Media can be added to each well if this well needs to be continuously maintained after the experiment.
13. Look through all wells on an inverted microscope using the 2× objective lens to observe morphological changes.
14. Taking pictures in the red and green channels would allow not only the recording of the result but also more accurate quantitation of the result. To take pictures for all the wells, first pick a well that has robust red and green signals. […]

Where [1] appears, read: Lung LL2 ex vivo, Conc. 20 μm, (24 hrs).

For the compound `CCN(CC)CCCN1CCN(c2c(S(=O)(=O)c3ccc(OC)cc3)cnc3cc(OC)c(OC)cc23)CC1` [compound 302, 3-(4-(6,7-dimethoxy-3-((4-methoxyphenyl)sulfonyl)quinolin-4-yl)piperazin-1-yl)-N,N-diethylpropan-1-amine], the cytotoxicity at 40 µM stood at 70%.
Same read-out and setting: the value for `COc1ccc(S(=O)(=O)c2cnc3ccc(C(=O)N(C)C)cc3c2N2CCC(N3CCCCC3)CC2)cc1` [compound 331, 4-([1,4′-bipiperidin]-1′-yl)-3-((4-methoxyphenyl)sulfonyl)-N,N-dimethylquinoline-6-carboxamide] was 10%.
`CCCCCCCCCCOc1ccc(S(=O)(=O)c2cnc3ccc([S+](C)[O-])cc3c2N2CCC(N3CCN(C)CC3)CC2)cc1` (centres unmarked) [compound 264, 3-((4-(decyloxy)phenyl)sulfonyl)-4-(4-(4-methylpiperazin-1-yl)piperidin-1-yl)-6-(methylsulfinyl)quinoline]: the cytotoxicity at 10 µM stood at 20%.
`CCCCCCCCCCCCOc1ccc(S(=O)(=O)c2cnc3ccc([S+](C)[O-])cc3c2N2CCC(N3CCC(N4CCN(CCO)CC4)CC3)CC2)cc1` (centres unmarked) [compound 340, 2-(4-(1′-(3-((4-(dodecyloxy)phenyl)sulfonyl)-6-(methylsulfinyl)quinolin-4-yl)-[1,4′-bipiperidin]-4-yl)piperazin-1-yl)ethan-1-ol]: the cytotoxicity at 20 µM is 60%.
Consider `CCOC(=O)c1ccc2ncc(S(=O)(=O)c3ccc(OC)cc3)c(N3CCC(N4CCN(C)CC4)CC3)c2c1` [compound 171, ethyl 3-((4-methoxyphenyl)sulfonyl)-4-(4-(4-methylpiperazin-1-yl)piperidin-1-yl)quinoline-6-carboxylate], for which the cytotoxicity at 40 µM came out at 40%.
Regarding `CCCCCCCCCCCCCCOc1ccc(S(=O)(=O)c2cnc3ccc([S+](C)[O-])cc3c2N2CCC(N3CCC(N4CCN(C)CC4)CC3)CC2)cc1F` (centres unmarked) [compound 371, 3-((3-fluoro-4-(tetradecyloxy)phenyl)sulfonyl)-4-(4-(4-methylpiperazin-1-yl)-[1,4′-bipiperidin]-1′-yl)-6-(methylsulfinyl)quinoline], the cytotoxicity at 20 µM is 30%.
`CCCCOc1ccc(S(=O)(=O)c2cnc3ccc(SC)cc3c2N2CCC(=O)N(C)CC2)cc1` [compound 357, 1-(3-((4-butoxyphenyl)sulfonyl)-6-(methylthio)quinolin-4-yl)-4-methyl-1,4-diazepan-5-one]: the Cell death (Lung LL2 ex vivo, Conc. 40 μm) came out at 0%.
As to `CCc1ccc(S(=O)(=O)c2cnc3ccc(OC(F)(F)F)cc3c2NCCCCO)cc1` [compound 111, 4-((3-((4-ethylphenyl)sulfonyl)-6-(trifluoromethoxy)quinolin-4-yl)amino)butan-1-ol], the cytotoxicity at 20 µM was determined as 30%.
Regarding `CCCCCCCCCCCCOc1ccc(S(=O)(=O)c2cnc3ccc([S+](C)[O-])cc3c2N2CCC(N3CCC(N4CCCC(O)C4)CC3)CC2)cc1F` (centres unmarked) [compound 364, 1″-(3-((4-(dodecyloxy)-3-fluorophenyl)sulfonyl)-6-(methylsulfinyl)quinolin-4-yl)-[1,4′:1′,4″- terpiperidin]-3-ol], the cytotoxicity at 20 µM is 30%.
As for `COc1ccc(S(=O)(=O)c2cnc3ccc(C(=O)N(C)C)cc3c2N2CCCN(CC(=O)N(C)C)CC2)cc1` [compound 333, 4-(4-(2-(dimethylamino)-2-oxoethyl)-1,4-diazepan-1-yl)-3-((4-methoxyphenyl)sulfonyl)-N,N-dimethylquinoline-6-carboxamide], the cytotoxicity at 40 µM stood at 0%.
Take `CCOC(=O)c1ccc2ncc(S(=O)(=O)c3ccc(OC)cc3)c(N3CCCN(CCN4CCCCC4)CC3)c2c1` [compound 179, ethyl 3-((4-methoxyphenyl)sulfonyl)-4-(4-(2-(piperidin-1-yl)ethyl)-1,4-diazepan-1-yl)quinoline-6-carboxylate]: the cytotoxicity at 10 µM worked out at 60%.
Consider `CCCCCCCCCCCCCCOc1ccc(S(=O)(=O)c2cnc3ccc([S+](C)[O-])cc3c2N2CCC(N3CCC(N4CCCCC4)CC3)CC2)cc1F` (centres unmarked) [compound 366, 4-([1,4′:1′,4″-terpiperidin]-1″-yl)-3-((3-fluoro-4-(tetradecyloxy)phenyl)sulfonyl)-6-(methylsulfinyl)quinoline], for which the cytotoxicity at 20 µM stood at 10%.
Consider `CCCCCCCOc1ccc(S(=O)(=O)c2cnc3ccc([S+](C)[O-])cc3c2N2CCC(N3CCC(O)(c4ccccc4)CC3)CC2)cc1` (centres unmarked) [compound 263, 1′-(3-((4-(heptyloxy)phenyl)sulfonyl)-6-(methylsulfinyl)quinolin-4-yl)-4-phenyl-[1,4′-bipiperidin]-4-ol], for which the cytotoxicity at 10 µM turned out to be 100%.
`CCCCOc1ccc(S(=O)(=O)c2cnc3ccc(S(C)(=O)=O)cc3c2N2CCC(N3CCC(O)CC3)CC2)cc1` [compound 170, 1′-(3-((4-butoxyphenyl)sulfonyl)-6-(methylsulfonyl)quinolin-4-yl)-[1,4′-bipiperidin]-4-ol]: the cytotoxicity at 20 µM is 10%.
Take `CCCCCCCOc1ccc(S(=O)(=O)c2cnc3ccc(SC)cc3c2N2CCC(N3CCCC(O)C3)CC2)cc1` (centres unmarked) [compound 247, 1′-(3-((4-(heptyloxy)phenyl)sulfonyl)-6-(methylthio)quinolin-4-yl)-[1,4′-bipiperidin]-3-ol]: the cytotoxicity at 20 µM stood at 60%.
In turn, `COc1ccc(S(=O)(=O)c2cnc3ccc(CC#N)cc3c2N2CCC(N3CCCCC3)CC2)cc1` [compound 115, 2-(4-([1,4′-bipiperidin]-1′-yl)-3-((4-methoxyphenyl)sulfonyl)quinolin-6-yl)acetonitrile] had a Cell death (Lung LL2 ex vivo, Conc. 20 μm) of 10%.
Regarding `CCCCOc1ccc(S(=O)(=O)c2cnc3ccc(C(=O)OCC)cc3c2N2CCC(N3CCSCC3)CC2)cc1` [compound 217, ethyl 3-((4-butoxyphenyl)sulfonyl)-4-(4-thiomorpholinopiperidin-1-yl)quinoline-6-carboxylate], the cytotoxicity at 40 µM was 30%.
`CCCCCCCCCCOc1ccc(S(=O)(=O)c2cnc3ccc([S+](C)[O-])cc3c2N2CCC(N3CCC(N4CCOCC4)CC3)CC2)cc1` (centres unmarked) [compound 286, 4-(1′-(3-((4-(decyloxy)phenyl)sulfonyl)-6-(methylsulfinyl)quinolin-4-yl)-[1,4′-bipiperidin]-4-yl)morpholine]: under setting [1], the “Cell death (24 hrs)” value was determined as 0% and the “Morphology observations (24 hrs)” value came to 0.
Take `COc1ccc(S(=O)(=O)c2cnc3cc(OC)c(OC)cc3c2N2CCC(c3ccc(CN4CCCC4)cc3)CC2)cc1` [compound 312, 6,7-dimethoxy-3-((4-methoxyphenyl)sulfonyl)-4-(4-(4-(pyrrolidin-1-ylmethyl)phenyl)piperidin-1-yl)quinoline]: the cytotoxicity at 40 µM came to 100%.
Regarding `CCc1ccc(S(=O)(=O)c2cnc3ccc(OC(F)(F)F)cc3c2NN2CCOCC2)cc1` [compound 126, N-(3-((4-ethylphenyl)sulfonyl)-6-(trifluoromethoxy)quinolin-4-yl)morpholin-4-amine], the cytotoxicity at 20 µM was found to be 10%.
Regarding `CCN(CC)CCC(C)Nc1c(S(=O)(=O)c2ccc(OC)cc2)cnc2cc(OC)c(OC)cc12` (centres unmarked) [compound 300, N3-(6,7-dimethoxy-3-((4-methoxyphenyl)sulfonyl)quinolin-4-yl)-N1,N1-diethylbutane-1,3-diamine], the cytotoxicity at 40 µM worked out at 20%.
Same read-out and setting: the value for `COc1ccc(S(=O)(=O)c2cnc3ccc(OC(F)(F)F)cc3c2NCCO)cc1OC` [compound 73, 2-((3-((3,4-dimethoxyphenyl)sulfonyl)-6-(trifluoromethoxy)quinolin-4-yl)amino)ethan-1-ol] was 10%.
